The target in data set [1] is recombinant human GALK1 (Homo sapiens, UniProt P51570). Briefly: hGALK1 biochemical activity assay (Kinase-Glo Plus, ATP depletion). An outline of the steps: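 Recombinant human or mouse GALK1 (5 nM, with 100 μM galactose, in the added enzyme solution) was run with ATP (35 μM in the substrate solution) in HEPES pH 8.0 buffer. Compounds were tested at 11 1/3-step concentrations from 57.4 μM to 0.97 nM. After 1 h at room temperature, remaining ATP was read by Kinase-Glo Plus luminescence.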
recombinant human GALK1, sequence (P51570 whole entry): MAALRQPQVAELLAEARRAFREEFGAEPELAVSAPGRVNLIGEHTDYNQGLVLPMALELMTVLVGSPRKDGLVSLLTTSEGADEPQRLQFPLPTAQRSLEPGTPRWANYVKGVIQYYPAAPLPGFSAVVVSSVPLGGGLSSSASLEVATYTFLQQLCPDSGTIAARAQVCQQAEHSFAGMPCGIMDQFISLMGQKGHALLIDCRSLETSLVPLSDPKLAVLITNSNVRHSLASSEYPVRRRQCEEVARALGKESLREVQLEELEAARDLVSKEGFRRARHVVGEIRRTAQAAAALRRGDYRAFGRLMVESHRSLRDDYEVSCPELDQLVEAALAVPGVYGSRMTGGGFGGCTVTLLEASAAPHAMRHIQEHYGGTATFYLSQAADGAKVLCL

Data set [2] has as its target recombinant mouse GALK1 (Mus musculus, UniProt Q9R0N0). Briefly: mGALK1 biochemical activity assay (Kinase-Glo Plus, ATP depletion). An outline of the steps:
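Recombinant GALK1 (5 nM) with 100 μM galactose; GALK1 turnover read as ATP depletion by Kinase-Glo Plus luminescence. Reaction ran 1 h at room temperature before detection reagent was added.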

Data set [3] addresses T1, hGALK1m (Homo sapiens, UniProt P51570, E253A/K252A).
T1 construct: made in house; host or cells: E. coli HMS174
Briefly: in vitro hGALK1 activity assay of the structure-based optimisation (Example 12, Tables 17-20). To be noted: for Emax: Tables 18-19, read-out: Max Response (%); for fold decrease of potency versus parent compound: loss of potency relative to the unsubstituted parent. Type of data set: biochemical. On the procedure:
In vitro hGALK1 activity assays were performed as previously described. Liu et al., Bioorg. Med. Chem. Lett. 25(3): 721-727 (2015), which is incorporated by reference herein for the specific teachings thereof. The biochemical assay was performed by coupling the activity of recombinant human or mouse GALK1 to the Kinase-Glo Plus luminescent ATP detection kit, using ATP depletion as a measure of GALK1 turnover. Specifically, three μL/well of ATP substrate solution (35 μM ATP) in assay buffer (20 mM HEPES pH 8.0, 5 mM MgCl2, 60 mM NaCl, 1 mM DTT, 0.01% BSA final concentration) was dispensed into 1536-well assay plates (Greiner, white solid-bottom medium-binding plates). Aliquots of compound (23 nL solubilized in DMSO) were transferred to the assay plates using a Kalypsys 1536-well pintool such that 11 concentrations with 1/3 dilutions ranging from 57.4 μM-0.97 nM are tested. One μL/well of GALK-galactose solution (5 nM GALK1, 100 μM galactose) in assay buffer was then added, yielding a final reaction volume of 4 μL/well. Following a 1-hour room temperature incubation, 4 μL of Kinase-Glo Plus detection reagent was added to provide an ATP-dependent luminescent readout (final assay volume: 8 μL/well). Luminescence was detected using a ViewLux plate reader (PerkinElmer) after a 10-minute incubation, using a 1 second exposure time and 2× binning.
The in vitro hGALK1 activity assay was performed as previously described. Liu et al., Bioorg. Med. Chem. Lett. 25(3): 721-727 (2015). For the measurement of cellular Gal-1P reduction, compounds at different concentrations were added to cultured patient fibroblast at 80% confluency. After incubating the compounds for 16 hours, 10 mM galactose was added to the culture. After another 4 hours, cells were washed with cold PBS buffer 3× and harvested for gal-1P measurement, according to the previously published method. Liu et al., Bioorg. Med. Chem. Lett. 25(3): 721-727 (2015).

Data set [4] can be described thus: PAMPA permeability. Particulars: for Papp: PAMPA, ADME P: PAMPA permeability (class), Tables 17-19, class probably colour-coded, colour lost.
The nature of data set [5]: aqueous kinetic solubility.
The nature of data set [6]: rat microsomal stability (RLM). Particulars: for Metab. Stabil. (m): microsomal half-life; for half-life: rat, rat liver microsomes.
[7] abbreviates: Tables 2-15, 35 μM ATP, 100 μM galactose, 1 h, bracketed figure after some values (e.g. −1.2) is undefined and not reported, read-out: hGALK IC50.
Setting [8] is: Tables 2-15, 35 μM ATP, 100 μM galactose, 1 h, bracketed figure after some values is undefined and not reported, read-out: mGALK IC50.
Setting [9] is: recombinant mouse GALK1, Kinase-Glo Plus ATP depletion, read-out: mGALK.
Where [10] appears, read: Tables 18-20 and text of Example 12.
The mark [11] stands for this setting: recombinant human GALK1, Kinase-Glo Plus ATP depletion, read-out: hGALK.
[12] abbreviates: Tables 18-19 and text of Example 12.

The structures appear in SMILES notation. Read-outs that look alike come from different tables or passages of the source. Bounds are passed on as bounds.

T1 sequence (P51570 whole entry K252A/E253A): as the sequence (P51570 whole entry) above, with K252A, E253A counted along it
recombinant mouse GALK1, sequence (Q9R0N0 whole entry): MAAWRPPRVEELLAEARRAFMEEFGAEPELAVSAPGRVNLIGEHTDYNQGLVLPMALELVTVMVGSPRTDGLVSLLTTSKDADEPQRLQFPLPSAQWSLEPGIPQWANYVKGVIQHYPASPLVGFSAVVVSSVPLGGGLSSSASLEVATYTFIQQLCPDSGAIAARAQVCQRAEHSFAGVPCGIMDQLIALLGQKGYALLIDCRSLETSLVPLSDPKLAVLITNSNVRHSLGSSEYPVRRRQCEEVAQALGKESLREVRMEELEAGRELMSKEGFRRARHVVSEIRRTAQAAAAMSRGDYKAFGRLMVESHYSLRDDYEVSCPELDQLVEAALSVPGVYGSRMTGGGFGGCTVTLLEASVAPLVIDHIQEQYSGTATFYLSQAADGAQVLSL

Take `CC1=C(C(=O)Nc2cc(C(=O)O)ccn2)C(c2ccccc2Cl)N=C(Nc2nc3cc(C)ccc3o2)N1` (stereo not drawn) [Compound 4, 2-(4-(2-chlorophenyl)-6-methyl-2-((5-methylbenzo[d]oxazol-2-yl)amino)-1,4-dihydropyrimidine-5-carboxamido)isonicotinic acid]: the IC50 in data set [1] (setting [7]) was found to be 1.37 µM. Besides, the IC50 in data set [2] (setting [8]) was determined as 3.06 µM. The IC50 in data set [2] (setting [9]) was 3.06 µM. Moreover, in data set [3], the “change of potency versus parent compound (in words)” value (from here on “change”) is given as “slightly improved the potency” and the Emax turned out to be 100%. Moreover, the IC50 in data set [3] (setting [10]) came to 0.611 µM. Besides, in data set [4], the “Perm. (1 × 10^−6 cm/sec)” value is listed as <1 1 × 10^−6 cm/sec and the Papp was less than 10 ×10⁻⁶ cm/s. Besides, the “Sol.” value in data set [5] was less than 1 µg/mL. In data set [6], the “Metab. Stabil. (m)” value was more than 30 m and the half-life is less than 10 min.

Consider `COc1ccc2oc(NC3=NC(c4ccccc4Cl)C(C(=O)Nc4cc(C(=O)O)ccn4)=C(C)N3)nc2c1` (stereo not drawn) [Compound 5, 2-(4-(2-chlorophenyl)-2-((5-methoxybenzo[d]oxazol-2-yl)amino)-6-methyl-1,4-dihydropyrimidine-5-carboxamido)isonicotinic acid], for which the IC50 in data set [1] (setting [11]) worked out at 6.85 µM; in data set [2] (setting [8]), 12.2 µM; in data set [2] (setting [9]) it was 12.2 µM; in data set [3] (setting [12]) it was 2 µM. The Emax in data set [3] is 100%. Also, the “Perm. (1 × 10^−6 cm/sec)” value in data set [4] is <1 1 × 10^−6 cm/sec. The molecule also yielded an apparent permeability coefficient (Papp) in data set [4] of less than 10 ×10⁻⁶ cm/s. Further, the “Sol.” value in data set [5] is more than 79 µg/mL. The “Metab. Stabil. (m)” value in data set [6] was more than 30 m. The same molecule gave a half-life in data set [6] of less than 10 min.

`CC1=C(C(=O)Nc2cc(C(=O)O)ccn2)C(c2ccccc2Cl)N=C(Nc2nc3ccc(C)cc3o2)N1` (stereo not drawn) [Compound 6, 2-(4-(2-chlorophenyl)-6-methyl-2-((6-methylbenzo[d]oxazol-2-yl)amino)-1,4-dihydropyrimidine-5-carboxamido)isonicotinic acid]: the IC50 in data set [1] (setting [7]) was 5.44 µM; in data set [2] (setting [8]) it was 17.2 µM; in data set [2] (setting [9]), 17.2 µM; in data set [3] (setting [12]), 6.9 µM. The Emax in data set [3] amounted to 100%. For the same molecule, the “fold decrease of potency versus parent compound” value in data set [3] is listed as approximately 7 fold. The “Perm. (1 × 10^−6 cm/sec)” value in data set [4] is on record as <1 1 × 10^−6 cm/sec. Further, the Papp in data set [4] was less than 10 ×10⁻⁶ cm/s. Besides, the “Sol.” value in data set [5] amounted to 34.42 µg/mL. For the same molecule, the “Metab. Stabil. (m)” value in data set [6] is more than 30 m. Besides, the half-life in data set [6] was less than 10 min.

For `CC1=C(C(=O)Nc2cc(C(=O)O)ccn2)C(c2ccccc2Cl)N=C(Nc2nc3cccc(F)c3o2)N1` (stereo not drawn) [Compound 10, 2-(4-(2-chlorophenyl)-2-((7-fluorobenzo[d]oxazol-2-yl)amino)-6-methyl-1,4-dihydropyrimidine-5-carboxamido)isonicotinic acid], the IC50 in data set [1] (setting [11]) was 1.72 µM. For the same molecule, in data set [2] (setting [8]), the IC50 was 8.63 µM. For the same molecule, the IC50 in data set [2] (setting [9]) is 8.63 µM. Further, in data set [3], the “change” value is recorded as “did not change the potency” and the Emax was 100%. This molecule also yielded an IC50 in data set [3] (setting [12]) of 1 µM. Further, in data set [4], the “Perm. (1 × 10^−6 cm/sec)” value is on record as <1 1 × 10^−6 cm/sec and the Papp was less than 10 ×10⁻⁶ cm/s. Further, the “Sol.” value in data set [5] is more than 77 µg/mL. Moreover, in data set [6], the “Metab. Stabil. (m)” value is more than 30 m and the half-life was less than 10 min.

With `CC1=C(C(=O)Nc2cc(C(=O)O)ccn2)C(c2ccccc2Cl)N=C(Nc2nc3c(Cl)cccc3o2)N1` (stereo not drawn) [Compound 11, 2-(2-((4-chlorobenzo[d]oxazol-2-yl)amino)-4-(2-chlorophenyl)-6-methyl-1,4-dihydropyrimidine-5-carboxamido)isonicotinic acid], the IC50 in data set [1] (setting [7]) stood at 5.44 µM; in data set [2] (setting [8]), 13.7 µM; in data set [2] (setting [9]), 13.7 µM; in data set [3] (setting [12]), 5.8 µM. Moreover, in data set [3], the Emax was 85%. Also, the “Perm. (1 × 10^−6 cm/sec)” value in data set [4] is listed as <1.3 1 × 10^−6 cm/sec. The molecule further showed an apparent permeability (Papp) in data set [4] of less than 10 ×10⁻⁶ cm/s. Besides, the “Sol.” value in data set [5] was less than 1 µg/mL. For the same molecule, the “Metab. Stabil. (m)” value in data set [6] is recorded as more than 30 m. In data set [6], the half-life was less than 10 min.

For `CC1=C(C(=O)Nc2cc(C(=O)O)ccn2)C(c2ccccc2Cl)N=C(Nc2nc3cc(N)ccc3o2)N1` (stereo not drawn) [Compound 12, 2-(2-((5-aminobenzo[d]oxazol-2-yl)amino)-4-(2-chlorophenyl)-6-methyl-1,4-dihydropyrimidine-5-carboxamido)isonicotinic acid], the IC50 in data set [1] (setting [7]) amounted to 7.69 µM; in data set [2] (setting [8]), 21.7 µM; in data set [2] (setting [9]), 21.7 µM; in data set [3] (setting [12]), 5.5 µM. Also, in data set [3], the Emax worked out at 100%. In data set [4], this molecule yielded a Papp of less than 10 ×10⁻⁶ cm/s. Also, the “Sol.” value in data set [5] is more than 76 µg/mL. The “Metab. Stabil. (m)” value in data set [6] is more than 30 m. The molecule further yielded a half-life in data set [6] of less than 10 min.

Consider `CC1=C(C(=O)Nc2cc(C(=O)O)ccn2)C(c2ccccc2Cl)N=C(Nc2nc3ccc(Cl)cc3o2)N1` (stereo not drawn) [Compound 14, 2-(2-((6-chlorobenzo[d]oxazol-2-yl)amino)-4-(2-chlorophenyl)-6-methyl-1,4-dihydropyrimidine-5-carboxamido)isonicotinic acid], for which the IC50 turned out to be 1.93 µM in data set [1] (setting [11]), 6.11 µM in data set [2] (setting [8]), 6.11 µM in data set [2] (setting [9]) and 2.25 µM in data set [3] (setting [12]). In data set [3], the Emax was 100%. Moreover, the “fold decrease of potency versus parent compound” value in data set [3] was “more than 2 fold”. The same molecule registered an apparent permeability coefficient (Papp) in data set [4] of less than 10 ×10⁻⁶ cm/s. Also, the “Sol.” value in data set [5] was 6.3 µg/mL. The “Metab. Stabil. (m)” value in data set [6] was more than 30 m. The half-life in data set [6] is less than 10 min.

Regarding `CC1=C(C(=O)Nc2cc(C(=O)O)ccn2)C(c2ccccc2Cl)N=C(Nc2nc3cccc(C)c3o2)N1` (stereo not drawn) [Compound 15, 2-(4-(2-chlorophenyl)-6-methyl-2-((7-methylbenzo[d]oxazol-2-yl)amino)-1,4-dihydropyrimidine-5-carboxamido)isonicotinic acid], the IC50 amounted to 0.97 µM in data set [1] (setting [7]), 6.85 µM in data set [2] (setting [8]), 6.85 µM in data set [2] (setting [9]) and 0.365 µM in data set [3] (setting [10]). Further, the Emax in data set [3] came to 100%. For the same molecule, in data set [3] (increase in potency relative to the unsubstituted parent), the “fold improvement of potency (IC50) versus parent compound” value was determined as 2.6 fold. This molecule returned a Papp in data set [4] of less than 10 ×10⁻⁶ cm/s. Further, the “Sol.” value in data set [5] was more than 76 µg/mL. Also, in data set [6], the “Metab. Stabil. (m)” value was more than 30 m. Moreover, in data set [6], the half-life is less than 10 min.

Take `CC1=C(C(=O)Nc2cc(C(=O)O)ccn2)C(c2ccccc2Cl)N=C(Nc2nc3cccc(C(F)(F)F)c3o2)N1` (stereo not drawn) [Compound 16, 2-(4-(2-chlorophenyl)-6-methyl-2-((7-(trifluoromethyl)benzo[d]oxazol-2-yl)amino)-1,4-dihydropyrimidine-5-carboxamido)isonicotinic acid]: in data set [1] (setting [11]), the IC50 was determined as 21.7 µM. Further, the IC50 in data set [2] (setting [8]) was determined as 48.5 µM. In addition, in data set [2] (setting [9]), the IC50 was 48.6 µM. Further, in data set [3], the “change” value is given as “greatly compromised the potencies” and the Emax was 100%. In addition, in data set [3] (setting [12]), the IC50 was more than 15 µM. Moreover, in data set [4], the “Perm. (1 × 10^−6 cm/sec)” value was <1 1 × 10^−6 cm/sec and the Papp is less than 10 ×10⁻⁶ cm/s. Also, the “Sol.” value in data set [5] was determined as 61.135 µg/mL. In data set [6], the “Metab. Stabil. (m)” value is more than 30 m and the half-life was less than 10 min.
